Source: PubChem BioAssay (NCI)
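All cell lines were grown in 96-well plates and treated with compound for 48 hours. GI50: concentration for 50% inhibition of growth. Definition used: TGI = concentration required for complete inhibition of growth.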

Legend:
Assay in all cases: NCI-60 cell line screen, 48 h
[1] = system: HS 578T breast
[2] = system: SK-MEL-5 melanoma
[3] = system: DU-145 prostate
[4] = system: MALME-3M melanoma
[5] = system: A498 renal
[6] = system: OVCAR-8 ovarian
[7] = system: COLO 205 colon
[8] = system: NCI-H226 lung
[9] = system: MDA-MB-435
[10] = system: T-47D breast
[11] = system: SF-268 CNS
[12] = system: RPMI-8226 leukemia
[13] = system: IGROV1 ovarian
[14] = system: SR leukemia
[15] = system: HCC-2998 colon
[16] = system: PC-3 prostate
[17] = system: TK-10 renal
[18] = system: NCI-H23 lung
[19] = system: HCT-116 colon
[20] = system: OVCAR-3 ovarian
[21] = system: MCF7 breast
[22] = system: M14 melanoma
[23] = system: UACC-257 melanoma
[24] = system: SNB-19 CNS
[25] = system: HT29 colon
[26] = system: U251 CNS
[27] = system: SK-MEL-2 melanoma
[28] = system: EKVX NSCLC
[29] = system: MDA-MB-231 breast
[30] = system: LOX IMVI melanoma
[31] = system: HL-60(TB) leukemia
[32] = system: SNB-75 CNS
[33] = system: HOP-62 NSCLC
[34] = system: SK-MEL-28 melanoma
[35] = system: MOLT-4 leukemia
[36] = system: RXF 393 renal
[37] = system: A549 NSCLC
[38] = system: UACC-62 melanoma
[39] = system: SN12C renal
[40] = system: NCI-H522 lung
[41] = system: OVCAR-4 ovarian
[42] = system: SK-OV-3 ovarian
[43] = system: HOP-92 NSCLC
[44] = system: HCT-15 colon
[45] = system: SF-539 CNS
[46] = system: BT-549 breast
[47] = system: 786-0 renal
[48] = system: SF-295 CNS
[49] = system: OVCAR-5 ovarian
[50] = system: KM12 colon
[51] = system: ACHN renal
[52] = system: SW-620 colon
[53] = system: NCI-H460 lung
[54] = system: NCI/ADR-RES ovarian
[55] = system: CCRF-CEM leukemia
[56] = system: UO-31 renal
[57] = system: K-562 leukemia
[58] = system: CAKI-1 renal

For `O=C(c1ccc(O)cc1)c1ccc(C(=O)c2ccc(O)cc2)cc1`, the GI50 [1] was 27.4 µM, the TGI [1] was greater than 100 µM and the GI50 [2] was greater than 100 µM. It also gave a TGI [2] greater than 100 µM, a GI50 [3] greater than 100 µM and a TGI [3] greater than 100 µM. The GI50 [4] was 35.7 µM, the TGI [4] was greater than 100 µM and the GI50 [5] was greater than 100 µM. The TGI [5] was greater than 100 µM, the GI50 [6] was 20.8 µM and the TGI [6] was greater than 100 µM. It also gave a GI50 [7] greater than 100 µM, a TGI [7] greater than 100 µM and a GI50 [8] of 33.5 µM. For the same compound, the TGI [8] was greater than 100 µM, the GI50 [9] was greater than 100 µM and the TGI [9] was greater than 100 µM. It also gave a GI50 [10] of 4.69 µM, a TGI [10] greater than 100 µM and a GI50 [11] of 26.6 µM. For the same compound, the TGI [11] was greater than 100 µM, the GI50 [12] was 5.21 µM and the TGI [12] was greater than 100 µM. For the same compound, the GI50 [13] was 6.32 µM, the TGI [13] was greater than 100 µM and the GI50 [14] was greater than 100 µM. The TGI [14] was greater than 100 µM, the GI50 [15] was greater than 100 µM and the TGI [15] was greater than 100 µM. The GI50 [16] was greater than 100 µM, the TGI [16] was greater than 100 µM and the GI50 [17] was greater than 100 µM. It also gave a TGI [17] greater than 100 µM, a GI50 [18] of 75.3 µM and a TGI [18] greater than 100 µM. The GI50 [19] was greater than 100 µM, the TGI [19] was greater than 100 µM and the GI50 [20] was greater than 100 µM. For the same compound, the TGI [20] was greater than 100 µM, the GI50 [21] was 75.1 µM and the TGI [21] was greater than 100 µM. The GI50 [22] was greater than 100 µM, the TGI [22] was greater than 100 µM and the GI50 [23] was greater than 100 µM. It also gave a TGI [23] greater than 100 µM, a GI50 [24] of 71.1 µM and a TGI [24] greater than 100 µM. It also gave a GI50 [25] greater than 100 µM, a TGI [25] greater than 100 µM and a GI50 [26] of 16.9 µM. It also gave a TGI [26] greater than 100 µM, a GI50 [27] greater than 100 µM and a TGI [27] greater than 100 µM. It also gave a GI50 [28] of 8.33 µM, a TGI [28] greater than 100 µM and a GI50 [29] of 46.9 µM. The TGI [29] was greater than 100 µM, the GI50 [30] was greater than 100 µM and the TGI [30] was greater than 100 µM. It also gave a GI50 [31] greater than 100 µM, a TGI [31] greater than 100 µM and a GI50 [32] of 22.5 µM. For the same compound, the TGI [32] was 56.2 µM, the GI50 [33] was 18 µM and the TGI [33] was 46.7 µM. The GI50 [34] was greater than 100 µM, the TGI [34] was greater than 100 µM and the GI50 [35] was greater than 100 µM. It also gave a TGI [35] greater than 100 µM, a GI50 [36] of 26.5 µM and a TGI [36] of 98.3 µM. The GI50 [37] was greater than 100 µM, the TGI [37] was greater than 100 µM and the GI50 [38] was greater than 100 µM. For the same compound, the TGI [38] was greater than 100 µM, the GI50 [39] was greater than 100 µM and the TGI [39] was greater than 100 µM. The GI50 [40] was 8.05 µM, the TGI [40] was greater than 100 µM and the GI50 [41] was greater than 100 µM. For the same compound, the TGI [41] was greater than 100 µM, the GI50 [42] was 23.3 µM and the TGI [42] was greater than 100 µM. The GI50 [43] was 8.04 µM, the TGI [43] was greater than 100 µM and the GI50 [44] was greater than 100 µM. For the same compound, the TGI [44] was greater than 100 µM, the GI50 [45] was 80 µM and the TGI [45] was greater than 100 µM. For the same compound, the GI50 [46] was 94 µM, the TGI [46] was greater than 100 µM and the GI50 [47] was greater than 100 µM. It also gave a TGI [47] greater than 100 µM, a GI50 [48] of 6.06 µM and a TGI [48] greater than 100 µM. The GI50 [49] was greater than 100 µM, the TGI [49] was greater than 100 µM and the GI50 [50] was greater than 100 µM. The TGI [50] was greater than 100 µM, the GI50 [51] was greater than 100 µM and the TGI [51] was greater than 100 µM. It also gave a GI50 [52] greater than 100 µM and a TGI [52] greater than 100 µM.

Work on `O=C(Cc1ccc(/C=C/C(=O)c2ncc[nH]2)cc1)Nc1ccc(Br)cc1` yielded a GI50 [1] of 7.94 µM, a TGI [1] greater than 16.7 µM and a GI50 [2] of 5.77 µM. The TGI [2] was greater than 16.7 µM, the GI50 [3] was 1.1 µM and the TGI [3] was 4.89 µM. For the same compound, the GI50 [4] was 3.12 µM, the TGI [4] was 7.69 µM and the GI50 [5] was 4.72 µM. For the same compound, the TGI [5] was 13.7 µM, the GI50 [6] was 4.04 µM and the TGI [6] was greater than 16.7 µM. It also gave a GI50 [7] of 2.57 µM, a TGI [7] of 5.74 µM and a GI50 [8] of 3.31 µM. For the same compound, the TGI [8] was 10.1 µM, the GI50 [9] was 3.7 µM and the TGI [9] was 15.6 µM. It also gave a GI50 [10] of 3.82 µM, a TGI [10] greater than 16.7 µM and a GI50 [11] of 1.83 µM. For the same compound, the TGI [11] was greater than 16.7 µM, the GI50 [12] was 0.705 µM and the TGI [12] was 4.06 µM. It also gave a GI50 [13] of 2.37 µM, a TGI [13] of 7.22 µM and a GI50 [14] of 0.608 µM. The TGI [14] was 12.9 µM, the GI50 [15] was 2.46 µM and the TGI [15] was 4.96 µM. For the same compound, the GI50 [16] was 2.51 µM, the TGI [16] was 10.2 µM and the GI50 [53] was 2.77 µM. For the same compound, the TGI [53] was 8.66 µM, the GI50 [17] was 4.31 µM and the TGI [17] was 12.6 µM. It also gave a GI50 [54] of 4.61 µM, a TGI [54] greater than 16.7 µM and a GI50 [18] of 2.2 µM. It also gave a TGI [18] of 8.5 µM, a GI50 [19] of 0.847 µM and a TGI [19] of 2.54 µM. The GI50 [20] was 0.85 µM, the TGI [20] was 3.88 µM and the GI50 [21] was 0.569 µM. It also gave a TGI [21] greater than 16.7 µM, a GI50 [22] of 3.11 µM and a TGI [22] of 7.83 µM. It also gave a GI50 [23] of 6.64 µM, a TGI [23] greater than 16.7 µM and a GI50 [24] of 2.54 µM. For the same compound, the TGI [24] was 7.99 µM, the GI50 [55] was 0.759 µM and the TGI [55] was greater than 16.7 µM. The GI50 [25] was 0.726 µM, the TGI [25] was 3.71 µM and the GI50 [26] was 0.704 µM. For the same compound, the TGI [26] was 2.56 µM, the GI50 [27] was greater than 16.7 µM and the TGI [27] was greater than 16.7 µM. The GI50 [28] was 4.58 µM, the TGI [28] was greater than 16.7 µM and the GI50 [29] was 3.97 µM. It also gave a TGI [29] of 13.4 µM, a GI50 [30] of 0.889 µM and a TGI [30] of 3.12 µM. For the same compound, the GI50 [31] was 2.78 µM, the TGI [31] was 13.9 µM and the GI50 [32] was 2.37 µM. The TGI [32] was greater than 16.7 µM, the GI50 [33] was 2.49 µM and the TGI [33] was 5.73 µM. The GI50 [34] was 3.07 µM, the TGI [34] was 6.65 µM and the GI50 [35] was 4.02 µM. For the same compound, the TGI [35] was greater than 16.7 µM, the GI50 [36] was 2.4 µM and the TGI [36] was 4.82 µM. For the same compound, the GI50 [37] was 6.06 µM, the TGI [37] was greater than 16.7 µM and the GI50 [38] was 2.85 µM. For the same compound, the TGI [38] was 6.11 µM, the GI50 [39] was 2.59 µM and the TGI [39] was 6.93 µM. It also gave a GI50 [56] of 1.79 µM, a TGI [56] of 3.86 µM and a GI50 [40] of 2.76 µM. For the same compound, the TGI [40] was 7.34 µM, the GI50 [41] was 3.42 µM and the TGI [41] was greater than 16.7 µM. The GI50 [42] was 8.2 µM, the TGI [42] was greater than 16.7 µM and the GI50 [43] was 6.74 µM. It also gave a TGI [43] greater than 16.7 µM, a GI50 [44] of 0.787 µM and a TGI [44] of 8.83 µM. It also gave a GI50 [45] of 1.47 µM, a TGI [45] of 3.56 µM and a GI50 [46] of 1.55 µM. The TGI [46] was 4.04 µM, the GI50 [57] was 0.745 µM and the TGI [57] was greater than 16.7 µM. For the same compound, the GI50 [47] was 0.946 µM, the TGI [47] was 3.13 µM and the GI50 [48] was 2.09 µM. It also gave a TGI [48] of 6.19 µM, a GI50 [49] of 2.24 µM and a TGI [49] of 5.83 µM. For the same compound, the GI50 [50] was 0.864 µM, the TGI [50] was 3.13 µM and the GI50 [51] was 2.72 µM. The TGI [51] was 5.25 µM, the GI50 [52] was 0.873 µM and the TGI [52] was 4.49 µM. It also gave a GI50 [58] of 2.92 µM and a TGI [58] of 8.48 µM.
